From patent publication US20250169495A1, “COMPOSITIONS AND METHODS FOR CONTROLLING DROSOPHILA FLIES” (Rutgers, The State University of New Jersey, priority 2023, published 2025)

How the values were obtained:
[1] = Emission rate from polyethylene sachets, semi-field cages; type: physicochemical; conditions: sachet with 2.5 mL, 24 h
Protocol: On the day of testing, two bushes were placed in each cage (FIG. 6B). Each bush in the tent was surrounded by a metal tomato cage. The bagged blueberry fruit clusters in the field were clipped and brought inside the cages. Clusters of 10 berries were created and placed in water picks. Five berry clusters were distributed randomly and evenly on each tomato cage at different heights using green twist ties (FIG. 6B). The sachets used for the treatments were prepared according to the methods described by Gale et al. (2024). They were constructed from 8 cm strips of polyethylene tubing (5.1 cm width, 2 MIL thickness; ULINE, Pleasant Prairie, WI, USA) and polyester felt (Grainger, Lake Forest, IL, USA). One end of the polyethylene tubing was sealed with an impulse sealer. A 5 cm strip of felt was placed inside the sachet's open end, and a 2.5 mL aliquot of each treatment was pipetted onto the felt. The open end was then sealed shut with the impulse sealer, entirely sealing the saturated felt. A hole was punched at the top of each sachet, away from the treatment area to avoid damaging the sealed section, and green twist ties were used to hang the sachets in the center of a bush (FIG. 6B). Before loading the sachets, the weights of the empty sachets were taken. The sachets were weighed again directly after loading with the compounds and then a final time after the 24-hour test period to measure the emission rates of each volatile. Finally, the emission rates of compounds in the semi-field and field cage studies were calculated by subtracting the final weight of the sachets from the initial weight and dividing by the time interval (24 h or 3 days). These rates were then compared across repellent treatments using ANOVA, with Tukey pairwise comparisons conducted when significant differences were found.

Drosophila suzukii = test: Semi-field cage oviposition deterrence, potted blueberry bushes; type: in vivo; conditions: N=10; for fewer eggs laid in treated berries than in control berries: sachet 2.5 mL, 24 h
Protocol: Semi-field cage experiments were conducted from June until July to evaluate the oviposition deterrent effects of ethyl butanoate, ethyl (E)-but-2-enoate, and 2-pentylfuran against D. suzukii. These experiments are considered semi-field because they took place in an isolated open field surrounded by woods with potted plants inside outdoor cages. The cages were constructed using polyvinyl chloride (PVC) pipes (3.8 cm diameter) to construct 1.8 m×1.8 m×1.8 m frames. Screen tents (Lumite® screen portable field cages; BioQuip, CA, USA) were placed over the PVC frames, and large nails were used to secure the tents to the ground (FIG. 6A). Cages were spaced 10 m apart. To obtain blueberries for the experiment, prior to the start of the experiment, field-grown highbush blueberry (Vaccinium corymbosum L. var. ‘Bluecrop’) clusters were bagged early in the season with cloth bags when they were still green to prevent infestation from resident D. suzukii populations for use in the experiment. In addition, 80 3-to-4-year-old potted blueberry bushes were stripped of their berries and used for the experiment. On the day of testing, two bushes were placed in each cage (FIG. 6B). Each bush in the tent was surrounded by a metal tomato cage. The bagged blueberry fruit clusters in the field were clipped and brought inside the cages. Clusters of 10 berries were created and placed in water picks. Five berry clusters were distributed randomly and evenly on each tomato cage at different heights using green twist ties (FIG. 6B). The sachets used for the treatments were prepared according to the methods described by Gale et al. (2024). They were constructed from 8 cm strips of polyethylene tubing (5.1 cm width, 2 MIL thickness; ULINE, Pleasant Prairie, WI, USA) and polyester felt (Grainger, Lake Forest, IL, USA). One end of the polyethylene tubing was sealed with an impulse sealer. A 5 cm strip of felt was placed inside the sachet's open end, and a 2.5 mL aliquot of each treatment was pipetted onto the felt. The open end was then sealed shut with the impulse sealer, entirely sealing the saturated felt. A hole was punched at the top of each sachet, away from the treatment area to avoid damaging the sealed section, and green twist ties were used to hang the sachets in the center of a bush (FIG. 6B). Before loading the sachets, the weights of the empty sachets were taken. The sachets were weighed again directly after loading with the compounds and then a final time after the 24-hour test period to measure the emission rates of each volatile. In each cage, one of the bushes contained a sachet with the test volatile, while the other contained a blank sachet (control). Sachets were hung in the bushes 30 minutes prior to the start of experiments. Choice tests included: 1) control versus control; 2) control versus ethyl butanoate; […]) control versus ethyl (E)-but-2-enoate; and 4) control versus 2-pentylfuran. Fifty flies (1:1 male: female) were released in each cage at 18:00 hrs. After 24 hours, the berry clusters were collected and placed in 118 mL plastic cups. Berries were inspected under a dissection microscope for the number of eggs laid and were then incubated in 236.6 mL (8-oz) deli containers lined with two cotton pads on a laboratory bench at 22±2° C. and 55±5% relative humidity for two weeks to monitor for adult emergence. The study was replicated 10 times for each choice combination (N=4 choice combinations×2 bushes each×10 replicates=total of 80 bushes; N=50 flies×4 choice combinations×10 replicates=total of 2,000 flies). Semi-field cage data were analyzed using paired t-tests to determine differences between the number of eggs laid and adults that emerged from treated berries compared to control berries, and survival data were analyzed using two-way analysis of variance (ANOVA) (R statistical software version 4.1.1; R Development Core Team, Vienna, Austria). […]

| SMILES | mean emission rate (±SE) [1] | deterrence index (DI) based on number of eggs laid (Drosophila suzukii) | fewer flies (adult progeny) emerging from treated berries than from control berries (Drosophila suzukii; berries incubated two weeks) | fewer eggs laid in treated berries than in control berries (Drosophila suzukii) | difference in adult emergence between untreated and treated berries (Drosophila suzukii; berries incubated two weeks) |
| --- | --- | --- | --- | --- | --- |
| CCCC(=O)OCC [ethyl butanoate] | 70.4 ± 14.2 mg/h | performed similarly and were significantly different from the control | 59% | 54% |  |
| C/C=C/C(=O)OCC [ethyl (E)-but-2-enoate] | 54.9 ± 8.9 mg/h | performed similarly and were significantly different from the control | 78% | 75% |  |
| CCCCCc1ccco1 [2-pentylfuran, reference compound] | 82.3 ± 7.6 mg/h | performed similarly and were significantly different from the control |  | 67% | nonsignificant |
